According to patent US8592421B2, “Cyclic bioisosters of purine system derivatives and a pharmaceutical composition based thereon” (priority 2003, dated 2013):

What was measured:
[1] = system: plasma hemostasis; assay: Prothrombin time after intravenous administration; type: in vivo, rabbit; settings: for effect on the prothrombin time index: doses of 15.0, 30.0, 60.0 mg/kg
Description: The static parameters of the blood and plasma coagulation (partial activated thromboplastin time, thrombin time, maximum coagulation activity (test for auto coagulation) were determined using the Behnk Electronic coagulometer (Germany). The operating principle of this instrument is based on the fact that the formed blood clot breaks the contacts of the pulse counter in the flask-pin circuit, said pin permanently oscillating in a vertical plane. The moment of formation of the clot is registered by stopping the stop watch hand.
The measurements were effected at a constant temperature of 37° C. maintained by a temperature control unit.
The method of its determination is based on estimation of the coagulation of citrate or oxalic blood plasma, when it is mixed with thromboplastin and a calcium chloride solution. Since under these conditions the time of formation of the clot depends on the content of II, VII, IX and X factors in the investigated plasma sample, now the test is called “thromboplastin time by Quick” or “activity thromboplastin complex”.
Citrate blood containing 1 part of citrate per 9 parts of native blood was centrifuged at 3000 rev/min for 10 minutes to obtain plasma deprived of thrombocytes.
Added into a test tube in a water bath were 0.1 ml of plasma and 0.1 ml of a thromboplastin solution.

[2] = Morphine abstinence model: nitrites/nitrates NOX− in blood plasma, liver and brain; type: in vivo, rats Wistar; settings: 20.0 mg/kg intramuscularly; for Nitrites in liver: control 0.260 ± 0.023; for Nitrites in brain: Cortex of cerebrum: control 4.63 ± 0.29; for Nitrites in brain: Mesencephalon: control 5.66 ± 0.19; for Nitrites in brain: Hypothalamus: control 6.57 ± 0.50; for Nitrites in blood plasma: control 18.30 ± 2.14
Description: The experiments were carried out on rats in series of 7 animals on each compound according to the invention. Non-morphinized animal with not administered with compounds according to the invention were used as a control group. […] Then the rats were decapitated, the blood from somnolent arteries was collected in test tubes with solution EDTA as an anticoagulant, centrifuged at 1500 g for 15 minutes at 4° C.
To estimate the intensity of metabolism of nitrogen oxide in rats, quantitative determination of stable metabolites of nitrogen oxide—nitrites and nitrates NOX^− in the blood plasma, supernatanates of the liver and thymus gland, a study was conducted by a spectrometric method, and in the brain supernatanates by a […] method.
The spectrometric method is based the reaction of nitrites with the Griss reagent (a mixture of 2% solution of sulfanilamide and 0.2% N-(1-naphthyl)ethylene diamine. At the first step the nitrite reacts with sulfanilamide with formation of diazonium salt, and then with the second component to form azo dye with an adsorption maximum at 540 nm. For reduction of nitrates into nitrites, a fermentative method was used with bacterial reductase nitrate (Grisham M. B. et al., 1995). The samples of plasma and supernathant of the liver deproteinizated at 100° C. for 5 minutes incubated for 30 minutes at 37° C. in 50.0 mM of HEPES pH 7.4 in the presence of 0.2 unit/ml of Aspergillus reductase nitrate, 5.0 mkM of FAD and 0.1 mM of NAD-Ph. At the end of the reaction lactate dehydrogenase and pyruvate were added for isolation of NAD-Ph interfering with the Griss reaction. Then the Griss reagent was added and after 10-minute incubation the light absorption of the samples was measured at 540 nm. To amount of NOX^− was calculated using sodium nitrate as a standard.
The fluorometric method is based on calculation of the nitrite level by the intensity fluorescence of 2,3-diaminonaphthotriazole, a product of reaction of 2,3-diaminonaphthalene (DAN) and nitrite in an acidic medium (Misko T. R., Schilling R. J., Salvemini D. et al. “A fluorometric assay for the measurement of nitrite of biological samples”. Anal. Biochem., 1993, v. 214, p. 11-16). The brain supernatants deproteinizated at 100° C. were placed in a nitrite regenerating system containing 0.125 unit/ml of nitrate reductases, 25 mkM NADPh and 25 mkM FAD prepared in a 20-mM Tris-HCl buffer with pH 7.6 and incubated for 30 minutes at 37° C. The lactate dehydrogenase/pyruvate system was used for oxidation of the NADPh. Then 316 mkM of the DAN solution in 0.62 M of hydrochloric acids were added and the mixture was incubated for 10 minutes in darkness.
280 mM of NaOH were added for stabilization of the fluorescence of the formed 2,3-diaminonaphthotriazole. The fluorescence intensity was measured in the spectrofluorimeter Hitachi F-3000 at a wavelength of excitation of 365 nm and an emission of 405 nm. The concentration of NOX^− in the brain was calculated by means of a standard solution of sodium nitrate.

[3] = 15.0 mg/kg intravenously, after 15 minutes, control 11.8 ± 0.1
[4] = 15.0 mg/kg intravenously, after 30 minutes, control 11.8 ± 0.1
[5] = 15.0 mg/kg intravenously, after 60 minutes, control 11.8 ± 0.1
[6] = 15.0 mg/kg intravenously, after 120 minutes, control 11.8 ± 0.1
[7] = 30.0 mg/kg intravenously, after 15 minutes, control 11.2 ± 0.1
[8] = 30.0 mg/kg intravenously, after 30 minutes, control 11.2 ± 0.1
[9] = 30.0 mg/kg intravenously, after 60 minutes, control 11.2 ± 0.1
[10] = 30.0 mg/kg intravenously, after 120 minutes, control 11.2 ± 0.1
[11] = 60.0 mg/kg intravenously, after 15 minutes, control 12.0 ± 0.1
[12] = 60.0 mg/kg intravenously, after 30 minutes, control 12.0 ± 0.1
[13] = 60.0 mg/kg intravenously, after 60 minutes, control 12.0 ± 0.1
[14] = 60.0 mg/kg intravenously, after 120 minutes, control 12.0 ± 0.1

| SMILES | prothrombin time, T [1, 3] [s] | prothrombin time, T [1, 4] [s] | prothrombin time, T [1, 5] [s] | prothrombin time, T [1, 6] [s] | prothrombin time, T [1, 7] [s] | prothrombin time, T [1, 8] [s] | prothrombin time, T [1, 9] [s] | prothrombin time, T [1, 10] [s] | prothrombin time, T [1, 11] [s] | prothrombin time, T [1, 12] [s] | prothrombin time, T [1, 13] [s] | prothrombin time, T [1, 14] [s] | effect on the prothrombin time index [1] | Nitrites in liver ([2]; Control + Compound) | Nitrites in brain: Cortex of cerebrum ([2]; Control + Compound) | Nitrites in brain: Mesencephalon ([2]; Control + Compound) | Nitrites in brain: Hypothalamus ([2]; Control + Compound) | Nitrites in blood plasma ([2]; Control + Compound) [mkmol/ml] | Nitrites in liver ([2]; Control + Morphine + compound) | Nitrites in brain: Cortex of cerebrum ([2]; Control + Morphine + compound) | further results |
| --- | --- | --- | --- | --- | --- | --- | --- | --- | --- | --- | --- | --- | --- | --- | --- | --- | --- | --- | --- | --- | --- |
| Nc1ccnc2c(=O)n([C@@H]3O[C@H](CO)[C@@H](O)[C@H]3O)[nH]c(=O)c12 [Compound 2, 4-amino-7-(β-D-ribofuranosile)pyrido[2,3-d]-6H-pyridazine-5,8-dione] | 11.7 ± 0.2 | 11.5 ± 0.2 | 11.4 ± 0.2 | 11.7 ± 0.1 | 11.1 ± 0.2 | 11.0 ± 0.1 | 11.3 ± 0.1 | 11.2 ± 0.2 | 12.0 ± 0.1 | 11.9 ± 0.2 | 12.1 ± 0.2 | 11.9 ± 0.1 | have no effect on the prothrombin time index |  |  |  |  |  |  |  |  |
| O=c1[nH][nH]c(=O)c2ncccc12.[Li] [Compound 6, lithium salt of pyrido[2,3-d]-6H-pyridazine-5,8-dione] |  |  |  |  |  |  |  |  |  |  |  |  |  | 0.245 ± 0.010 nmol/mg of protein | 4.59 ± 0.44 nmol/mg of protein | 7.01 ± 0.82 nmol/mg of protein | 6.94 ± 0.67 nmol/mg of protein | 15.83 ± 1.21 | 0.294 ± 0.02 nmol/mg of protein | 5.12 ± 0.18 nmol/mg of protein | Nitrites in brain: Mesencephalon ([2]; Control + Morphine + compound): 5.76 ± 0.94 nmol/mg of protein; Nitrites in brain: Hypothalamus ([2]; Control + Morphine + compound): 6.72 ± 0.94 nmol/mg of protein; Nitrites in blood plasma ([2]; Control + Morphine + compound): 15.86 ± 1.20 mkmol/ml |
| Nc1cccc2c(=O)[nH][nH]c(=O)c12.[Na] [Compound 15, sodium salt of 5-amino-benzo[d]-3H-pyridazine-1,4-dione] | 11.5 ± 0.2 | 11.7 ± 0.2 | 11.2 ± 0.2 | 11.5 ± 0.2 | 11.0 ± 0.2 | 11.2 ± 0.2 | 11.4 ± 0.2 | 11.3 ± 0.2 | 12.0 ± 0.1 | 12.0 ± 0.1 | 12.0 ± 0.2 | 12.0 ± 0.1 | have no effect on the prothrombin time index | 0.259 ± 0.019 nmol/mg of protein | 4.31 ± 0.37 nmol/mg of protein | 6.65 ± 0.70 nmol/mg of protein | 6.77 ± 0.83 nmol/mg of protein | 14.39 ± 0.84 | 0.285 ± 0.02 nmol/mg of protein | 4.72 ± 0.37 nmol/mg of protein | Nitrites in brain: Mesencephalon ([2]; Control + Morphine + compound): 5.50 ± 0.43 nmol/mg of protein; Nitrites in brain: Hypothalamus ([2]; Control + Morphine + compound): 6.57 ± 0.88 nmol/mg of protein; Nitrites in blood plasma ([2]; Control + Morphine + compound): 13.91 ± 1.91 mkmol/ml |
| Nc1cnc2c(=O)n([C@@H]3O[C@H](CO)[C@@H](O)[C@H]3O)[nH]c(=O)c2n1.[Na] [Compound 21, sodium salt of 3-amino-7-(β-D-ribofuranosile)pyrazine[2,3-d]-6H-pyridazine-5,8-dione] | 11.4 ± 0.2 | 11.5 ± 0.1 | 11.3 ± 0.1 | 11.5 ± 0.2 | 11.2 ± 0.1 | 11.2 ± 0.1 | 11.3 ± 0.2 | 11.2 ± 0.2 | 12.0 ± 0.2 | 11.8 ± 0.1 | 12.1 ± 0.1 | 12.0 ± 0.2 | have no effect on the prothrombin time index |  |  |  |  |  |  |  |  |
| O=c1[nH][nH]c(=O)c2nccnc12.[Li] [Compound 25, lithium salt of pyrazine[2,3-d]-6H-pyridazine-5,8-dione] |  |  |  |  |  |  |  |  |  |  |  |  |  | 0.307 ± 0.012 nmol/mg of protein | 4.47 ± 0.43 nmol/mg of protein | 6.98 ± 1.02 nmol/mg of protein | 6.87 ± 0.80 nmol/mg of protein | 17.10 ± 2.05 | 0.287 ± 0.01 nmol/mg of protein | 4.91 ± 0.32 nmol/mg of protein | Nitrites in brain: Mesencephalon ([2]; Control + Morphine + compound): 5.91 ± 0.74 nmol/mg of protein; Nitrites in brain: Hypothalamus ([2]; Control + Morphine + compound): 6.67 ± 0.79 nmol/mg of protein; Nitrites in blood plasma ([2]; Control + Morphine + compound): 16.78 ± 2.11 mkmol/ml |
